According to PubChem BioAssay (NCI):
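Five concentrations, 48 hours, 96-well plates. At the GI50, growth is halved. TGI marks complete inhibition of growth.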

How the values were obtained:
Experiment in all cases: DTP human tumour cell line panel, 48 h
[1] = system: NCI-H226 lung
[2] = system: UO-31 renal
[3] = system: UACC-257 melanoma
[4] = system: SF-295 CNS
[5] = system: MCF7 breast
[6] = system: SK-MEL-2 melanoma
[7] = system: COLO 205 colon
[8] = system: HT29 colon
[9] = system: MDA-MB-435
[10] = system: K-562 leukemia
[11] = system: PC-3 prostate
[12] = system: NCI/ADR-RES ovarian
[13] = system: BT-549 breast
[14] = system: OVCAR-8 ovarian
[15] = system: SK-MEL-28 melanoma
[16] = system: U251 CNS
[17] = system: CCRF-CEM leukemia
[18] = system: MDA-MB-468 breast
[19] = system: HL-60(TB) leukemia
[20] = system: SNB-75 CNS
[21] = system: HCC-2998 colon
[22] = system: DU-145 prostate
[23] = system: HOP-62 NSCLC
[24] = system: SF-539 CNS
[25] = system: OVCAR-5 ovarian
[26] = system: NCI-H23 lung
[27] = system: MALME-3M melanoma
[28] = system: ACHN renal
[29] = system: HOP-92 NSCLC
[30] = system: SW-620 colon
[31] = system: A549 NSCLC
[32] = system: LOX IMVI melanoma
[33] = system: HS 578T breast
[34] = system: SK-MEL-5 melanoma
[35] = system: NCI-H522 lung
[36] = system: IGROV1 ovarian
[37] = system: SK-OV-3 ovarian
[38] = system: T-47D breast
[39] = system: SF-268 CNS
[40] = system: HCT-15 colon
[41] = system: EKVX NSCLC
[42] = system: HCT-116 colon
[43] = system: OVCAR-3 ovarian
[44] = system: TK-10 renal
[45] = system: KM12 colon
[46] = system: NCI-H460 lung
[47] = system: M14 melanoma
[48] = system: 786-0 renal
[49] = system: CAKI-1 renal
[50] = system: RPMI-8226 leukemia
[51] = system: A498 renal

CN(C)c1nc(NCCNS(=O)(=O)c2ccc(C3=Nc4c(N)nc(N)nc4NC(c4ccc(F)cc4)C3)cc2)nc(Nc2ccc(F)cc2)n1 (configuration not stated)
GI50 [1]: > 100 µM
TGI [1]: > 100 µM
GI50 [2]: > 100 µM
TGI [2]: > 100 µM
GI50 [3]: 11.4 µM
TGI [3]: > 100 µM
GI50 [4]: 6.71 µM
TGI [4]: > 100 µM
GI50 [5]: 3.16 µM
TGI [5]: 43.7 µM
GI50 [6]: 8.17 µM
TGI [6]: 29 µM
GI50 [7]: 11.8 µM
TGI [7]: > 100 µM
GI50 [8]: 3.88 µM
TGI [8]: > 100 µM
GI50 [9]: 5.93 µM
TGI [9]: > 100 µM
GI50 [10]: 2.8 µM
TGI [10]: > 100 µM
GI50 [11]: 5.04 µM
TGI [11]: > 100 µM
GI50 [12]: > 100 µM
TGI [12]: > 100 µM
GI50 [13]: 3.26 µM
TGI [13]: 18.2 µM
GI50 [14]: 12 µM
TGI [14]: > 100 µM
GI50 [15]: 15.7 µM
TGI [15]: > 100 µM
GI50 [16]: 6.35 µM
TGI [16]: > 100 µM
GI50 [17]: 3.99 µM
TGI [17]: > 100 µM
GI50 [18]: 2.15 µM
TGI [18]: 6.24 µM
GI50 [19]: 3.12 µM
TGI [19]: > 100 µM
GI50 [20]: 2.53 µM
TGI [20]: 74 µM
GI50 [21]: 4.22 µM
TGI [21]: > 100 µM
GI50 [22]: 52 µM
TGI [22]: > 100 µM
GI50 [23]: 96 µM
TGI [23]: > 100 µM
GI50 [24]: 3.89 µM
TGI [24]: > 100 µM
GI50 [25]: > 100 µM
TGI [25]: > 100 µM
GI50 [26]: 54.1 µM
TGI [26]: > 100 µM
GI50 [27]: 6.28 µM
TGI [27]: > 100 µM
GI50 [28]: > 100 µM
TGI [28]: > 100 µM
GI50 [29]: 3.09 µM
TGI [29]: 23.3 µM
GI50 [30]: 8.27 µM
TGI [30]: > 100 µM
GI50 [31]: > 100 µM
TGI [31]: > 100 µM
GI50 [32]: 2.62 µM
TGI [32]: 9.13 µM
GI50 [33]: 5.7 µM
TGI [33]: > 100 µM
GI50 [34]: 3.36 µM
TGI [34]: 14.9 µM
GI50 [35]: 34.8 µM
TGI [35]: > 100 µM
GI50 [36]: 5.01 µM
TGI [36]: > 100 µM
GI50 [37]: > 100 µM
TGI [37]: > 100 µM
GI50 [38]: 4.86 µM
TGI [38]: > 100 µM
GI50 [39]: 4.83 µM
TGI [39]: > 100 µM
GI50 [40]: > 100 µM
TGI [40]: > 100 µM
GI50 [41]: 5.17 µM
TGI [41]: > 100 µM
GI50 [42]: 4.54 µM
TGI [42]: > 100 µM
GI50 [43]: 8.09 µM
TGI [43]: > 100 µM
GI50 [44]: > 100 µM
TGI [44]: > 100 µM
GI50 [45]: 4.69 µM
TGI [45]: > 100 µM
GI50 [46]: 4.74 µM
TGI [46]: > 100 µM
GI50 [47]: 3.84 µM
TGI [47]: 25.3 µM
GI50 [48]: 4.77 µM
TGI [48]: > 100 µM
GI50 [49]: 6.5 µM
TGI [49]: > 100 µM
GI50 [50]: 5.25 µM
TGI [50]: > 100 µM
GI50 [51]: 22.1 µM
TGI [51]: > 100 µM
